Results taken from patent publication US11208412B2 (DAEGU-GYEONGBUK MEDICAL INNOVATION FOUNDATION, priority 2017, dated 2021).

Assays:
Assay in all cases: Kinase selectivity, DiscoverX scanMAX Kinase assay panel (% control)
Type in all cases: binding
[1] = biological target: T1, kinases of the scanMAX Kinase assay panel (Homo sapiens, UniProt O94921); conditions: PFTK1; 1 uM
T1 construct: purchased DiscoverX Co. (contract measurement) scanMAX Kinase assay panel
In short: (§1)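 Each enzyme is treated with drug at 1 uM in DMSO, then signal is scaled between a positive control (0%) and DMSO (100%) to give % control. Kinases with % control under 35% are scored as inhibited.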

[2] = biological target: T2, kinases of the scanMAX Kinase assay panel (Homo sapiens, UniProt P0C264); conditions: kinase SgK110; 1 uM in DMSO
T2 construct: purchased DiscoverX Co. (contract measurement) scanMAX Kinase assay panel
T2 sequence (P0C264 1-359): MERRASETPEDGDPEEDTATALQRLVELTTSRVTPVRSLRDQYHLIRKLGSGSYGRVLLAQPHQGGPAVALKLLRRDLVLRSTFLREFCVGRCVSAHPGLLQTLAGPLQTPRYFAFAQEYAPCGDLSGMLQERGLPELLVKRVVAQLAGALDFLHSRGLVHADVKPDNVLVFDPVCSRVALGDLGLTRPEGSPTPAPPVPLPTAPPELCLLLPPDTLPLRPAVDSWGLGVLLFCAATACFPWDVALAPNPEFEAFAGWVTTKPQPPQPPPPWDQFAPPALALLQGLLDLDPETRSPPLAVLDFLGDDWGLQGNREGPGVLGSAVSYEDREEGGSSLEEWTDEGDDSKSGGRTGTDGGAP
In short: as §1

[3] = biological target: T3, kinases of the scanMAX Kinase assay panel (Homo sapiens, UniProt P53779); conditions: JNK3; 1 uM
T3 construct: purchased DiscoverX Co. (contract measurement) scanMAX Kinase assay panel
In short: as §1

[4] = biological target: T4, kinases of the scanMAX Kinase assay panel (Homo sapiens, UniProt Q13237); conditions: PRKG2; 1 uM
T4 construct: purchased DiscoverX Co. (contract measurement) scanMAX Kinase assay panel
T4 sequence (Q13237 1-762): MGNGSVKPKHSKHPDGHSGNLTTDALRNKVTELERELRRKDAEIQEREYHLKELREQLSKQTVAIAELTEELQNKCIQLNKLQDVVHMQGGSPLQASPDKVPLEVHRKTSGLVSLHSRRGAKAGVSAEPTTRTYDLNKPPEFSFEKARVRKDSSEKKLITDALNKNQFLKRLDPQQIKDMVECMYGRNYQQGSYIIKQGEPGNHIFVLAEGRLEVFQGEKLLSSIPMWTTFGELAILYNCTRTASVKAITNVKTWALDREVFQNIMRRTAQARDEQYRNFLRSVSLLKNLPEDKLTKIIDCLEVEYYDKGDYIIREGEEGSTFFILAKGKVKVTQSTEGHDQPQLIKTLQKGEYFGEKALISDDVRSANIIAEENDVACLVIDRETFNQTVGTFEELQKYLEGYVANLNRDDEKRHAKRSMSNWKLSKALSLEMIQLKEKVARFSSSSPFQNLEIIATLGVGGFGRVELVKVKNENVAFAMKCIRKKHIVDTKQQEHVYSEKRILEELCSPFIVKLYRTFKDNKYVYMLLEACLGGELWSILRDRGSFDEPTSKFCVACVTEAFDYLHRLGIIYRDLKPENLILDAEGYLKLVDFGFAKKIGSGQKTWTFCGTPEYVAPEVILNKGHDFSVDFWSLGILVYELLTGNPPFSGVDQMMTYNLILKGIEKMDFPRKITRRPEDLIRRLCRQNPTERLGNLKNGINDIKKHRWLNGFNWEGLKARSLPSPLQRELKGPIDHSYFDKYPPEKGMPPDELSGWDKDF
In short: as §1

[5] = biological target: T5, kinases of the scanMAX Kinase assay panel (Homo sapiens, UniProt Q6P3R8); conditions: NEK5; 1 uM
T5 construct: purchased DiscoverX Co. (contract measurement) scanMAX Kinase assay panel
T5 sequence (Q6P3R8 1-708): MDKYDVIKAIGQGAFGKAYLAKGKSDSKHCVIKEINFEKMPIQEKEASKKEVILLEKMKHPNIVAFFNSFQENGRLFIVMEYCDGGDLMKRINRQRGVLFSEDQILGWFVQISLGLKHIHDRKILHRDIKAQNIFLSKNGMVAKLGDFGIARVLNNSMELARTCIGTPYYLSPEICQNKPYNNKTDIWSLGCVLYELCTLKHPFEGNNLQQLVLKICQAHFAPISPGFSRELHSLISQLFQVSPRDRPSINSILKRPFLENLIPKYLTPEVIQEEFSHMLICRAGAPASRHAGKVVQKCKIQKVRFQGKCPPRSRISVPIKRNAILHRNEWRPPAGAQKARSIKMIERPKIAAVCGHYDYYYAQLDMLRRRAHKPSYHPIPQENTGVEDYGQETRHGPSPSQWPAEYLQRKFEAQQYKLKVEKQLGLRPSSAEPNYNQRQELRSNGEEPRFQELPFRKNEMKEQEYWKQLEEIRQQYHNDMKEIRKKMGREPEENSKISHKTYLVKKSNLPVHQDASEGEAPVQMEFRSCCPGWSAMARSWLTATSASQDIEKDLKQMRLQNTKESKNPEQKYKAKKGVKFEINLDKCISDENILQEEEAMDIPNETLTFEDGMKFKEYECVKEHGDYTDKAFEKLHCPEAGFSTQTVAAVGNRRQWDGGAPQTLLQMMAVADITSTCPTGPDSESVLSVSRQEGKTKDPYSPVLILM
In short: as §1

[6] = biological target: T6, kinases of the scanMAX Kinase assay panel (Homo sapiens, UniProt Q8N4C8); conditions: MINK; 1 uM
T6 construct: purchased DiscoverX Co. (contract measurement) scanMAX Kinase assay panel
In short: as §1

[7] = biological target: T7, kinases of the scanMAX Kinase assay panel (Homo sapiens, UniProt Q8TBX8); conditions: PIP5K2C; 1 uM
T7 construct: purchased DiscoverX Co. (contract measurement) scanMAX Kinase assay panel
T7 sequence (Q8TBX8 1-421): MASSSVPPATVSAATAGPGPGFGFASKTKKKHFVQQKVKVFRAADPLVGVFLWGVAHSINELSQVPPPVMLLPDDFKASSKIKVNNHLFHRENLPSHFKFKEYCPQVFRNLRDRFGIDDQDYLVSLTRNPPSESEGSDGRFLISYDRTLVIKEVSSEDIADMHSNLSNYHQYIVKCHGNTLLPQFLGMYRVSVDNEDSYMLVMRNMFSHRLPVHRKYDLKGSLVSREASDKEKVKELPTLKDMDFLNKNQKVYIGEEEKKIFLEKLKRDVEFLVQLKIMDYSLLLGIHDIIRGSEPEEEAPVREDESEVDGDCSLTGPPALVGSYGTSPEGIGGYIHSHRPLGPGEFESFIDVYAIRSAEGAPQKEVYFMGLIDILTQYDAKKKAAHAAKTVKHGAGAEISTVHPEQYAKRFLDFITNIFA
In short: as §1

T1 sequence (O94921 whole entry): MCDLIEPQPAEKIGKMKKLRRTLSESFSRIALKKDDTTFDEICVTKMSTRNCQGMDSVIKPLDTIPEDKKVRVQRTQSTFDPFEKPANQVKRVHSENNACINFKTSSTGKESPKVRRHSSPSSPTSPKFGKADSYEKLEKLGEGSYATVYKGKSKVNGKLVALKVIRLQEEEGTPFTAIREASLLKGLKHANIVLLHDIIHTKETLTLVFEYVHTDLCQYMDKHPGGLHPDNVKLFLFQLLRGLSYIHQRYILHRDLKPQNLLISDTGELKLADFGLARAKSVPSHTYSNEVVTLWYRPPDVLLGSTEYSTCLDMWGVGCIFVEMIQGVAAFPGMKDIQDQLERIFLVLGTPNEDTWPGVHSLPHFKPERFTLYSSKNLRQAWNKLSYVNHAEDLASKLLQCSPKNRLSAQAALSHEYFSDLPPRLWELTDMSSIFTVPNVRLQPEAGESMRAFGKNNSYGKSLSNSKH
T6 sequence (Q8N4C8 whole entry): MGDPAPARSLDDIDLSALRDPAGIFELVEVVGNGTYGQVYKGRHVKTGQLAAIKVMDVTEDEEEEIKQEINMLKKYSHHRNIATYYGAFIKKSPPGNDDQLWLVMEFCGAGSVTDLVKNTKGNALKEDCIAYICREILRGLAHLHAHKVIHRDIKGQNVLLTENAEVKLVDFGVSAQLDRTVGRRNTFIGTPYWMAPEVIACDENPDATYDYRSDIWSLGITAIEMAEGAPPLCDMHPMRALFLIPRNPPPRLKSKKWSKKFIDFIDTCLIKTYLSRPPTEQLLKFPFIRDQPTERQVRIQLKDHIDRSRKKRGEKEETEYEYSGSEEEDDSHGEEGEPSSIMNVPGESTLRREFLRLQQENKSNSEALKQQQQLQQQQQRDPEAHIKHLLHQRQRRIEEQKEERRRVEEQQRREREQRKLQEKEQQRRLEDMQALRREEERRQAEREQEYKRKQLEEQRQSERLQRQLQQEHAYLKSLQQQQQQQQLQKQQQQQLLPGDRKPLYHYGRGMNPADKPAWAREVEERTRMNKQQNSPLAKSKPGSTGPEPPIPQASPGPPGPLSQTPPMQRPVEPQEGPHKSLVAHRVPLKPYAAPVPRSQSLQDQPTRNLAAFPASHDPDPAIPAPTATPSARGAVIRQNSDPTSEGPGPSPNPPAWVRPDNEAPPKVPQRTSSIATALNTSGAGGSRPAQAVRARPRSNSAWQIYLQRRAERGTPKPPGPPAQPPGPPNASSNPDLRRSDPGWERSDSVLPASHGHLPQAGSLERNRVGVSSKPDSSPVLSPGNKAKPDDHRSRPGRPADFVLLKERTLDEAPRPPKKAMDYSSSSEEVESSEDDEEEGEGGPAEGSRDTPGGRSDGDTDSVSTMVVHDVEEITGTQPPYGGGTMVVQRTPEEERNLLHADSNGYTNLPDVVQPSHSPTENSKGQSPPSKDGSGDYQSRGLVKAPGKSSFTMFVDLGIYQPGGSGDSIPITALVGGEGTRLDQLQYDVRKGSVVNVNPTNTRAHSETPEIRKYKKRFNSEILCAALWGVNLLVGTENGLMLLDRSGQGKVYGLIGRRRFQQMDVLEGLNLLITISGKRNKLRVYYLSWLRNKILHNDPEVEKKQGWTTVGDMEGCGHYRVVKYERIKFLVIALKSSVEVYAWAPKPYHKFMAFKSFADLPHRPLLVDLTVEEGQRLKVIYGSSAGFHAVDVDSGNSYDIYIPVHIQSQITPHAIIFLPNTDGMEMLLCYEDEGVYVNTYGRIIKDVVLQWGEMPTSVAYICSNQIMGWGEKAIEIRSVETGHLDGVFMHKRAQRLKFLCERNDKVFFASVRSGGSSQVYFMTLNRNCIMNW
T3 sequence (P53779 whole entry): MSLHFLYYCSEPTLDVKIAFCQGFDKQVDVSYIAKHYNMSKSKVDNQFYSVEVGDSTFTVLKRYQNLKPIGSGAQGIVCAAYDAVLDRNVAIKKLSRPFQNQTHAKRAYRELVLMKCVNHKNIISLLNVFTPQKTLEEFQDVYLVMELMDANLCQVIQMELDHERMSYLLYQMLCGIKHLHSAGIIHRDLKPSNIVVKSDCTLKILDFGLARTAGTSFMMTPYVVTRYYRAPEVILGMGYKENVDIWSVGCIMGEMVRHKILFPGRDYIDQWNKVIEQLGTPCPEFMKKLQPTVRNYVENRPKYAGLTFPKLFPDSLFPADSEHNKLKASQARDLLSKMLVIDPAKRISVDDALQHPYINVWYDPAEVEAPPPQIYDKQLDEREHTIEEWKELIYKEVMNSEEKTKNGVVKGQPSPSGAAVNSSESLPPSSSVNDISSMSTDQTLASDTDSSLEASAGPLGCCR

Row | SMILES | remaining binding at 1 µM [1] | remaining binding at 1 µM [2] | remaining binding at 1 µM [3] | remaining binding at 1 µM [4] | remaining binding at 1 µM [5] | remaining binding at 1 µM [6] | remaining binding at 1 µM [7]
1 | CNc1nc(Nc2ccc(C(=O)N3CCOCC3)cc2OC)nc2[nH]cc(C#N)c12 [Example 1, 2-((2-methoxy-4-(morpholine-4-carbonyl)phenyl)amino)-4-(methylamino)-7H-pyrrolo[2,3-d]pyrimidine-5-carbonitrile] | 97% | 100% | 0% | 100% | 98% | 50% | 4.5%
2 | CC1(Nc2nc(Nc3cnn([C@H]4CCN(C5COC5)C[C@@H]4F)c3Cl)nc3[nH]cc(C#N)c23)CC1 [Example 52, 2-((5-chloro-1-((3S,4S)-3-fluoro-1-(oxetane-3-yl)piperidine-4-yl)-1H-pyrazole-4-yl)amino)((1-methylcyclopropyl)amino)-7H-pyrrolo[2,3-d]pyrimidine-5-carbonitrile] | 100% | 32% | 0% | 94% | 99% | 6.4% | 0%
3 | CCNc1nc(Nc2ccc(C(=O)N3CCC(N4CCOCC4)CC3)cc2OC)nc2[nH]cc(C(F)(F)F)c12 [Example 104, (4-((4-(ethylamino)-5-(trifluoromethyl)-7H-pyrrolo[2,3-d]pyrimidine-2-yl)amino)-3-methoxyphenyl)(4-morpholinopiperidine-1-yl)methanone] | 96% | 100% | 18% | 91% | 95% | 91% | 77%
